The test system of the experiment is L1210 cells (murine lymphocytic leukemia). Description: Cytotoxic activity in vitro on L1210 cells (50% inhibition of cellular growth) after 48 h continuous treatment. In kind it is cell-based. Particulars: Mus musculus, total cells counted with Coulter Counter, DMSO final concentration 0.5%, read-out: IC50 (concentration inhibiting 50% of cell growth). The method, then:
The IC50 was determined for each compound of formula (Ia), (Ib) and (Ic) from dose-response curves counting the total number of cells with a Coulter Counter (Kontron mod. ZM).
The tested compounds were dissolved in dimethylsulfoxide (DMSO) at a final concentration of 0.5%.

The source of these data is patent US5998426A, “9,10 disubstituted camptothecin derivatives with antitumor activity” (Pharmacia & Upjohn S.p.A., priority 1996, dated 1999).

SMILES strings stand for the structures.

As to `CC[C@@]1(O)C(=O)OCc2c1cc1n(c2=O)Cc2cc3c(N)c(OS(=O)(=O)c4cccc5ccccc45)ccc3nc2-1` [Formula (Ia), 9-amino-10-(1-naphthylsulfonyloxy)-20(S)-camptothecin], the IC50 stood at 2.2 ± 0.3 ng/mL.

Consider `CC[C@@]1(O)C(=O)OCc2c1cc1n(c2=O)Cc2cc3c(N)c(OS(=O)(=O)c4ccccc4)ccc3nc2-1` [Formula (Ib), 9-amino-10-phenylsulfonyloxy-20(S)-camptothecin], for which the IC50 amounted to 6.8 ± 0.4 ng/mL. To `CCc1c2c(nc3ccc(OS(=O)(=O)c4ccc(C)cc4)c(N)c13)-c1cc3c(c(=O)n1C2)COC(=O)[C@]3(O)CC` [Formula (Ic), 7-ethyl-9-amino-10-(p-toluenesulfonyloxy)-20(S)-camptothecin] belongs 4.6 ± 0.1 ng/mL.
